Experimental data from patent publication US7776826B2, “Method for fostering bone formation and preservation” (Unigene Laboratories, Inc., priority 2004, dated 2010).
Where no end group is shown, it is not given here.

Experiments:
Format in all cases: in vivo, rat
[1] = system: osteoporotic female Sprague-Dawley rats; experiment: Lumbar vertebral bone mineral density and bone formation rate in ovariectomized osteoporotic rats, without mechanical induction; conditions: OVX rats, 4 weeks subcutaneous treatment, no mechanical induction
Protocol: FIG. 15 is a bar graph comparing the Lumbar Vertebral Bone Mineral Density obtained in osteoporotic female Sprague-Dawley rats wherein the osteoporosis was induced via an ovariectomy. The rats were treated with (1) PTH[1-31]-NH2; (2) PTH[1-34]-NH2; and PTH[1-34]-OH; and
FIG. 16 is a bar graph comparing the Lumbar Vertebral Bone Formation Rate obtained in osteoporotic female Sprague-Dawley rats wherein the osteoporosis was induced via an ovariectomy. The rats were treated with (1) PTH[1-31]-NH2; (2) PTH[1-34]-NH2; and PTH[1-34]-OH.
A series of experiments was performed comparing (1) lumbar vertebral bone mineral density, and (2) lumbar vertebral bone formation rate achieved with PTH[1-31]-NH2 and PTH[1-34]-OH compared to the preferred PTH[1-34]-NH2 analog discussed above in the absence of the mechanical induction step of the invention. The study involved a four-week treatment of female Sprague-Dawley rats at 10 months of age, and 6 months post-ovariectomy (“OVX”), which induces osteoporosis, with one of the three above-noted parathyroid hormone truncates. The rats were randomized into the following groups: sham OVX, OVX+ vehicle, OVX+PTH [1-31]-NH2 or PTH [1-34]-NH2 (obtained from Unigene Laboratories, Inc.) at 2.5, 10 or 40 μg/kg/day subcutaneous, or PTH[1-34]-OH (obtained from Bachem) at 10 μg/kg/day subcutaneous. After 4 weeks of treatment, the right femur of each animal was analyzed by DEXA and bone histomorphometry. FIG. 15 is a bar graph providing a comparison of the lumbar vertebral bone mineral density achieved with PTH[1-31]-NH2, PTH[1-34]-NH2 and PTH[1-34]-OH. FIG. 16 is a bar graph comparing the lumbar vertebral formation rates achieved with these same truncates. […] Because of the similarity of anabolic action among the above-discussed parathyroid hormones, it is therefore reasonable to expect that all known PTH analogs will advantageously function in the desired manner in the method of the present invention.

Male Sprague-Dawley rats [2] = experiment: Serum osteocalcin concentration at day 21, Groups K-R; conditions: for osteocalcin level, in words: bmx + agent daily for 21 days; for Osteocalcin mean: bmx rats, day 21, agent daily for 21 days, Groups K-R
From the text: FIG. 12 provides a measurement of the serum osteocalcin concentration (in ng/ml) in the blood of the rats in Groups K-R when the rats were sacrificed 21 days after commencement of treatment. The meaning of the abbreviated terms is the same as in FIGS. 10 and 11. […] [*=p value<0.05, while **=p value<0.01];
FIG. 12 is a bar graph which sets forth the osteocalcin levels determined, at the time of sacrifice, in the blood serum of the rats which were the subject of the analyses illustrated in FIGS. 10 and 11. As indicated above, it is well known that osteocalcin is a biochemical marker indicative of new bone growth.
The table additionally includes the standard deviations for the values obtained for each analysis, which standard deviations are also included in FIG. 12.

Male Sprague-Dawley rats [3] = experiment: pQCT analysis of left and right femoral shafts at day 21, Groups K-R; conditions: for Left femoral shaft Total density mean / Left femoral shaft Trabecular density mean: ablated femur; for Left femoral shaft Total density mean / Left femoral shaft Trabecular density mean / Right femoral shaft Total density mean / Right femoral shaft Trabecular density mean: day 21, agent daily for 21 days, Groups K-R; for trabecular bone density of left femoral shaft, in words: bmx, day 21; for Right femoral shaft Total density mean / Right femoral shaft Trabecular density mean: non-ablated femur
From the text: (§1) FIG. 10 (a-b) presents high resolution radiograms of the left and right femurs, respectively, from an additional series of experiments on additional groups of male Sprague-Dawley rats (6 rats per group) aged 9 weeks which were sacrificed and tested after 21 days (3 weeks). The various groups were subjected to the following treatment modalities: Group K—control day 0; Group L—control day 21; Group M—bone marrow ablation (bmx) day 0; Group N—sham day 21; Group O— bmx+phosphate buffer saline (PBS) daily for 21 days; Group P—bmx+PTH[1-34]-NH2 daily for 21 days; Group Q—bmx+ parathyroid hormone related peptide (PTHRP) daily for 21 days; and Group R—bmx+rat α-calcitonin gene related peptide (CGRP) daily for 21 days;
FIG. 11 (a-d) are graphical representations of the results of Peripheral Quantitative Computerized Tomography (PQCT) analyses of, respectively, the left (ablated) and right (non-ablated) femoral shafts of the rats from Groups K-R (see description of FIG. 10). FIGS. 11(a) and 11(b) illustrate the trabecular bone density observed in, respectively the left and right femoral shafts at day 21; whereas, FIGS. 11(c) and 11(d) illustrate the total bone density of, respectively, the left and right femoral shafts at the same interval. The meanings of the abbreviations used in FIGS. 11(a-d) are identical to those described above with regard to FIG. 10. […] [+=p value<0.01 vs. sham; *=p value<0.01 vs. bmx+PTH; **=p value<0.01 vs. bmx+PTH; and #=p value<0.05 vs. PBS];
An additional series of experiments was thereafter carried out with additional groups of rats (K-R) in order to (1) measure the effect of additional bone anabolic agents, i.e., other than parathyroid hormone (PTH[1-34]-NH2) and calcitonin, as well as to compare the effect(s) achieved with such parathyroid hormone with those obtained with the use of alternate anabolic agents, including parathyroid hormone related peptide (PTHrP) and calcitonin gene related peptide (CGRP). As in the case of the analyses discussed above with regard to FIGS. 3-9, in the animals tested only the left femur underwent the bone marrow ablation (bmx) procedure, i.e., there was no ablation of the right femur. Thus, as noted above, any views of the right femur in the figures described below indicating bone marrow ablation (bmx) as a treatment modality should be taken to mean that such treatment was applied to the corresponding left femur. Further, as was additionally the case above, the samples described below with regard to FIGS. 10-13 were taken from the femur shafts, rather than the corresponding distal epiphysis as in the case of FIGS. 1 and 2. The figures discussed below depict the results of end-point studies wherein the measurements were taken only at the 21 day end-point.
FIG. 11 (a-d) graphically illustrates, by means of a bar graph, the improvements in trabecular bone density and, to some extent, total bone density, in the left femoral shaft of rats subjected to the treatment modalities described above with regard to FIG. 10 (a-b); that is, control day 0; bmx day 0; control day 21; sham day 21; bmx+PBS on day 21; bmx+PTH on day 21; bmx+PTHrP on day 21; and bmx+CGRP on day 21. Again, this is attributable that (only) the left femur was subjected to the bmx treatment, and thus was the only femur wherein the effects of such bmx treatment overlapped with that of the systemic treatment with the bone anabolic agent. […] In contrast to the values obtained for the left femur, no significant amount of bone was formed in the right femur, notwithstanding whether it is trabecular bone density or total bone density which is being measured. This lack of new bone is, furthermore, attributable to the fact that the right femur had not been subjected to the bone marrow ablation (bmx) treatment.

Male Sprague-Dawley rats [4] = experiment: MicroCT analysis of femoral shafts, Groups K-R; conditions: left femoral shaft with bmx, agent for 21 days
From the text: FIG. 13(a-b) illustrate the results of Micro Computerized Tomography (MicroCT) analysis of the left (ablated) and right (non-ablated) femoral shafts of the rats of Groups K-R. The abbreviations are the same as those used in FIGS. 10-12;
FIG. 13 (a-b) provides a comparison between Micro Computerized Tomography (MicroCT) analyses of bone samples taken from the left femoral shaft (FIG. 13a) and the right femoral shaft (FIG. 13b) of rats treated in the manner indicated in FIGS. 10-12. As in the other cases discussed above, the most significant amount of new bone growth is found in the shaft of the left femur, since this shaft was subjected to the bmx treatment. […] In contrast, the right femoral shaft sections show very little or no increase in bone growth at all.

Male Sprague-Dawley rats [5] = experiment: High resolution radiograms of left and right femurs, Groups K-R; conditions: left femur with bmx, agent daily for 21 days
From the text: as §1
FIG. 10 (a-b) presents a set of high resolution radiograms of the entire left and right femurs of additional (to those described above) groups of rats, injected daily for a designated term with one or more of the following agents: phosphate buffer saline (PBS); parathyroid hormone (PTH[1-34]-NH2); parathyroid hormone related peptide (PTHrP); and calcitonin gene related peptide (CGRP). The rats chosen for test subjects were subjected to the following treatment modalities (as indicated in the lower left corner of each of the radiograms): control day 0; control day 21; bone marrow ablation (bmx) day 0; sham day 21; bmx followed by injection of PBS buffer daily for 21 days; bmx followed by injection of PTH daily for 21 days; bmx followed by injection of PTHrP daily for 21 days; and bmx followed by injection of CGRP daily for 21 days.
As shown by FIG. 10(a), the best results, i.e., the greatest bone density, was obtained in the left femur wherein the effect of the bone marrow ablation overlapped with that attributable to the administration of the various anabolic agents. As in the case of FIG. 3, the lighter, i.e, more radio-opaque, areas indicate the locations of the greatest additional bone growth.

| Compound | bone anabolic activity (lumbar vertebral bone mineral density and bone formation rate) [1] | osteocalcin level, in words (Male Sprague-Dawley rats [2]) | Osteocalcin mean (Male Sprague-Dawley rats [2]) | Left femoral shaft Total density mean (Male Sprague-Dawley rats [3]) | Left femoral shaft Trabecular density mean (Male Sprague-Dawley rats [3]) | trabecular bone density of left femoral shaft, in words (Male Sprague-Dawley rats [3]) | Right femoral shaft Total density mean (Male Sprague-Dawley rats [3]) | Right femoral shaft Trabecular density mean (Male Sprague-Dawley rats [3]) | new bone growth in MicroCT, in words (Male Sprague-Dawley rats [4]) | bone density on radiograms, in words (Male Sprague-Dawley rats [5]) |
| --- | --- | --- | --- | --- | --- | --- | --- | --- | --- | --- |
| PTH[1-31]-NH2 (SVSEIQLMHNLGKHLNSMERVEWLRKKLQDV-NH2; UniProt P01270 32-62, looked up, fragment) [amidated parathyroid hormone truncate obtained from Unigene Laboratories] | substantially equivalent |  |  |  |  |  |  |  |  |  |
| CC[C@H](C)[C@H](NC(=O)[C@H](CCC(=O)O)NC(=O)[C@H](CO)NC(=O)[C@@H](NC(=O)[C@@H](N)CO)C(C)C)C(=O)N[C@@H](CCC(N)=O)C(=O)N[C@@H](CC(C)C)C(=O)N[C@@H](CCSC)C(=O)N[C@@H](Cc1cnc[nH]1)C(=O)N[C@@H](CC(N)=O)C(=O)N[C@@H](CC(C)C)C(=O)NCC(=O)N[C@@H](CCCCN)C(=O)N[C@@H](Cc1cnc[nH]1)C(=O)N[C@@H](CC(C)C)C(=O)N[C@@H](CC(N)=O)C(=O)N[C@@H](CO)C(=O)N[C@@H](CCSC)C(=O)N[C@@H](CCC(=O)O)C(=O)N[C@@H](CCCN=C(N)N)C(=O)N[C@H](C(=O)N[C@@H](CCC(=O)O)C(=O)N[C@@H](Cc1c[nH]c2ccccc12)C(=O)N[C@@H](CC(C)C)C(=O)N[C@@H](CCCN=C(N)N)C(=O)N[C@@H](CCCCN)C(=O)N[C@@H](CCCCN)C(=O)N[C@@H](CC(C)C)C(=O)N[C@@H](CCC(N)=O)C(=O)N[C@@H](CC(=O)O)C(=O)N[C@H](C(=O)N[C@@H](Cc1cnc[nH]1)C(=O)N[C@@H](CC(N)=O)C(=O)N[C@@H](Cc1ccccc1)C(=O)O)C(C)C)C(C)C [PTH[1-34]-OH, reference compound] | substantially equivalent |  |  |  |  |  |  |  |  |  |
| rat α-calcitonin gene related peptide [CGRP] |  | no increase | 97 ng/mL | 963.5 mg/mL | 283.5 mg/mL | significantly improved | 831.1 mg/mL | 115.5 mg/mL | new bone growth, although lesser in scope | satisfactory results |
| parathyroid hormone related peptide [PTHRP] |  | Significant new bone growth | 124.2 ng/mL | 1017.9 mg/mL | 403.1 mg/mL | significantly improved | 858.2 mg/mL | 122.4 mg/mL | significant degree of improvement | satisfactory results |
